Some test systems named below: 786-0 renal; ACHN renal; EKVX NSCLC; HCT-116 colon; HL-60(TB) leukemia; HOP-92 NSCLC; MDA-N; RPMI-8226 leukemia; SF-539 CNS; SW-620 colon; TK-10 renal; UACC-62 melanoma; HCC-2998 colon; T-47D breast.
Holding throughout (assay): DTP human tumour cell line panel, 48 h

Experimental findings from PubChem BioAssay (NCI) are described below.

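Growth conditions: 96-well plates. Treatment: test compound, 48 hours, 5 concentrations. Analysis: linear interpolation between bracketing concentrations; unreached endpoints set to highest concentration. GI50 = concentration required for 50% inhibition of growth. TGI: concentration producing complete growth inhibition.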

On to `C=C1c2ccccc2C(=O)c2c1c1c(C(=O)OC)c(O)ccc1n2Cc1ccccc1`, for which the concentration for total growth inhibition (TGI) came to 0.525 µM in the assay with 786-0 renal; 1.74 µM in the assay on ACHN renal; 2.34 µM with EKVX NSCLC; 1.43 µM in the assay on HCT-116 colon; 0.857 µM with HL-60(TB) leukemia; 0.613 µM in the assay with HOP-92 NSCLC. Besides, the TGI turned out to be 1.55 µM in the assay with MDA-N; 0.53 µM in the assay with RPMI-8226 leukemia; 0.657 µM in the assay on SF-539 CNS; 1.42 µM with SW-620 colon; 1.55 µM in the assay with TK-10 renal; 1.12 µM in the assay on UACC-62 melanoma.
As to `CCOC(=O)C1=C(C)OC2(O)C=CC(O)=C3C(=O)N(c4ccccc4)C(=O)C312` (stereo not given), the TGI in the assay with 786-0 renal was > 100 µM; with ACHN renal it was > 100 µM; with EKVX NSCLC it was > 100 µM; in the assay with HCC-2998 colon it was 73.9 µM; in the assay on HCT-116 colon, > 100 µM; in the assay on HL-60(TB) leukemia, > 100 µM. In addition, the concentration for total growth inhibition (TGI) with HOP-92 NSCLC was > 100 µM; in the assay with RPMI-8226 leukemia, 86.1 µM; in the assay with SF-539 CNS, 68.2 µM; with T-47D breast, > 100 µM; in the assay with TK-10 renal, > 100 µM; in the assay on UACC-62 melanoma, 76.7 µM.
With `Nc1ncnc2c1ncn2C=C=CCO`, the TGI in the assay with HCC-2998 colon, in the assay with HCT-116 colon, with HOP-92 NSCLC, in the assay with RPMI-8226 leukemia, with SW-620 colon and with T-47D breast was > 100 µM throughout. In addition, in the assay on TK-10 renal, the TGI is > 100 µM.
As to `NN(CC(=O)O)CC(=O)O`, the TGI with 786-0 renal, in the assay with ACHN renal, in the assay on EKVX NSCLC, with HCC-2998 colon, in the assay with HCT-116 colon and with HL-60(TB) leukemia was > 100 µM throughout. Moreover, the TGI in the assay on MDA-N, in the assay on RPMI-8226 leukemia, in the assay on SF-539 CNS, in the assay with SW-620 colon, in the assay with T-47D breast and with TK-10 renal was > 100 µM in each case. Also, the TGI with UACC-62 melanoma was > 100 µM.
`CN1CCc2[nH]c3ccccc3c2C1`: the TGI in the assay on EKVX NSCLC, in the assay with HCC-2998 colon, in the assay on HCT-116 colon, with HL-60(TB) leukemia, with HOP-92 NSCLC and in the assay with RPMI-8226 leukemia was > 100 µM throughout. Further, the TGI in the assay with SF-539 CNS, in the assay with SW-620 colon and in the assay with UACC-62 melanoma was > 100 µM throughout.
As to `CCCCCCCCCCCCCCCCCCOc1ccccc1CC(=O)OCC[N+]1(C)CCCCC1`, the GI50 with ACHN renal was 5.01 µM; in the assay with EKVX NSCLC it was 2.65 µM; in the assay with HL-60(TB) leukemia, 1.92 µM; in the assay with HOP-92 NSCLC it was 1.32 µM; in the assay with SF-539 CNS, 1.97 µM; with T-47D breast it was 2.49 µM. Besides, the TGI in the assay with ACHN renal came out at 25.8 µM; in the assay on EKVX NSCLC, 17.5 µM; in the assay on HL-60(TB) leukemia, 4.36 µM; in the assay with HOP-92 NSCLC it was 3.35 µM; in the assay on SF-539 CNS, 3.89 µM; in the assay on T-47D breast, 9.37 µM.
As to `O=C(Nc1ccc(Cl)cc1)c1cc2cc(N=Nc3ccccc3Cl)ccc2oc1=O`, the TGI with ACHN renal is > 100 µM; in the assay with EKVX NSCLC it was 57.5 µM; in the assay on HCC-2998 colon, 41.2 µM; with HCT-116 colon it was 23.3 µM; in the assay with HL-60(TB) leukemia, 10.3 µM; in the assay with HOP-92 NSCLC it was 38.8 µM. Further, the TGI is 30.3 µM in the assay on RPMI-8226 leukemia; 31.3 µM in the assay on SF-539 CNS; > 100 µM in the assay with SW-620 colon; 89.4 µM in the assay on TK-10 renal; 26.6 µM with UACC-62 melanoma.
For `O=C([O-])C[n+]1ccccc1`, the TGI with 786-0 renal, in the assay with ACHN renal, with EKVX NSCLC, in the assay on HCT-116 colon, with HL-60(TB) leukemia and with HOP-92 NSCLC was > 100 µM throughout. In addition, the TGI in the assay with MDA-N, with RPMI-8226 leukemia, in the assay with SF-539 CNS, with SW-620 colon, in the assay on T-47D breast and in the assay on TK-10 renal was > 100 µM in each case. Also, the TGI in the assay with UACC-62 melanoma is > 100 µM.
As to `COc1cc2c(c(O)c1OC)-c1c(cc(OC)c(OC)c1OC)CC(C)C(C)C2` (stereo not given), the TGI with 786-0 renal is > 100 µM; in the assay on ACHN renal, > 100 µM; with EKVX NSCLC, > 100 µM; in the assay with HCC-2998 colon, > 100 µM; in the assay with HCT-116 colon, > 100 µM; in the assay with HL-60(TB) leukemia it was 55.2 µM. In addition, the TGI in the assay with HOP-92 NSCLC, in the assay on MDA-N, in the assay with RPMI-8226 leukemia, with SF-539 CNS, in the assay on SW-620 colon and in the assay with T-47D breast was > 100 µM throughout. In addition, the TGI in the assay with TK-10 renal and with UACC-62 melanoma was > 100 µM in each case.
`CN1CCOC(c2ccc(Cl)cc2)O1` (stereo not given): the TGI in the assay on ACHN renal, in the assay with EKVX NSCLC, in the assay with HCC-2998 colon, in the assay with HOP-92 NSCLC, with MDA-N and in the assay on SF-539 CNS was > 100 µM in each case. Further, the TGI in the assay with SW-620 colon, in the assay with TK-10 renal and in the assay with UACC-62 melanoma was > 100 µM in each case.
Take `CC(C)=CCC/C(C)=C/CC/C(C)=C/CC/C(C)=C/C=C/C=C(\C)CC/C=C(\C)CC/C=C(\C)CCC=C(C)C`: the TGI with 786-0 renal was 52.3 µM; with ACHN renal, 53 µM; with EKVX NSCLC it was > 93.3 µM; with HCC-2998 colon, > 100 µM; in the assay with HCT-116 colon, > 100 µM; in the assay on HL-60(TB) leukemia, 4.96 µM. Further, the TGI in the assay on HOP-92 NSCLC is > 75.5 µM; with MDA-N, > 100 µM; in the assay on RPMI-8226 leukemia it was > 100 µM; in the assay on SF-539 CNS, > 100 µM; in the assay with SW-620 colon it was > 100 µM; with T-47D breast, > 100 µM. Moreover, the TGI was > 74.3 µM in the assay on TK-10 renal and > 100 µM in the assay with UACC-62 melanoma.
For the compound `O=C(O)c1cc([N+](=O)[O-])cc2c(=O)c3cnccc3[nH]c12`, the TGI in the assay on HCC-2998 colon, in the assay on HCT-116 colon, with HL-60(TB) leukemia, with MDA-N, with RPMI-8226 leukemia and in the assay on T-47D breast was > 100 µM each time. Also, the TGI with UACC-62 melanoma is > 100 µM.
As for `CN(C)CCCSc1nc2ccccc2[nH]1`, the TGI in the assay with 786-0 renal, in the assay on ACHN renal, with EKVX NSCLC, in the assay on HCC-2998 colon, with HCT-116 colon and with HOP-92 NSCLC was > 100 µM throughout. The TGI in the assay with MDA-N, in the assay on RPMI-8226 leukemia, in the assay on SW-620 colon, with T-47D breast, in the assay with TK-10 renal and with UACC-62 melanoma was > 100 µM in each case.
